Some test systems named below: SF-268 CNS; HOP-62 NSCLC; TK-10 renal; SN12C renal; UO-31 renal; NCI-H522 lung; BT-549 breast; MOLT-4 leukemia; 786-0 renal; NCI-H23 lung; DU-145 prostate; SK-MEL-2 melanoma.
Common to all, as to test: NCI-60 cell line screen, 48 h

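The compound was tested at five concentrations on cells cultured in 96-well plates, with a 48-hour exposure period. Definition used: TGI = concentration required for complete inhibition of growth.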

Consider `O=S(=O)(CCC[C@H]1[C@@H](CCOCc2ccccc2)C2CCCN1O2)c1ccccc1` (some centres not stated), for which the TGI in the experiment on SF-268 CNS, in the experiment on HOP-62 NSCLC, in the experiment on TK-10 renal, in the experiment on SN12C renal, with UO-31 renal and in the experiment with NCI-H522 lung was more than 100 µM each time. Moreover, the TGI with BT-549 breast, in the experiment with MOLT-4 leukemia, in the experiment on 786-0 renal and in the experiment on NCI-H23 lung was more than 100 µM each time.

On to `O=[N+]([O-])/C(Cl)=C/C(=C1/Nc2ccccc2O1)[N+](=O)[O-]`, for which the TGI is 54.4 µM in the experiment on SF-268 CNS; 76.6 µM with HOP-62 NSCLC; more than 100 µM in the experiment with TK-10 renal; more than 100 µM in the experiment with SN12C renal; 35.8 µM in the experiment with UO-31 renal; 27 µM in the experiment with NCI-H522 lung. The TGI with BT-549 breast is 52 µM; in the experiment with DU-145 prostate, 41.6 µM; with MOLT-4 leukemia, 87.2 µM; with 786-0 renal it was more than 100 µM; in the experiment with NCI-H23 lung, 54.4 µM.

Take `C=CC1(c2ccc3ccccc3c2)OCC(CC)O1` (configuration not stated): the TGI with SF-268 CNS is more than 100 µM; with HOP-62 NSCLC, 2.48 µM; with TK-10 renal it was more than 100 µM; in the experiment with SN12C renal it was more than 100 µM; in the experiment on UO-31 renal, more than 100 µM; with SK-MEL-2 melanoma it was 43.9 µM. Further, the TGI is more than 100 µM in the experiment with NCI-H522 lung; more than 100 µM with DU-145 prostate; 87.9 µM in the experiment on MOLT-4 leukemia; more than 100 µM in the experiment with 786-0 renal; 96.2 µM in the experiment with NCI-H23 lung.

With `CCCCCCCCCCOCCOCCOCCOCCCCC(O)CCCCCCCC1=C[C@H](C)OC1=O` (some centres not stated), the TGI in the experiment with SF-268 CNS worked out at 22.9 µM; with TK-10 renal, 21.4 µM; with SN12C renal, 29.9 µM; in the experiment on UO-31 renal it was 18.3 µM; with SK-MEL-2 melanoma, 25 µM; in the experiment on NCI-H522 lung, 21.1 µM. The TGI was determined as 16.1 µM with BT-549 breast; 41.3 µM in the experiment on DU-145 prostate; 20.8 µM in the experiment on MOLT-4 leukemia; 45.5 µM in the experiment on 786-0 renal; 16.6 µM with NCI-H23 lung.

With `O=C(NCCCN(CCCCN(CCCNC(=O)c1cc(S(=O)(=O)O)cc(O)c1O)C(=O)c1cc(S(=O)(=O)O)cc(O)c1O)C(=O)c1cc(S(=O)(=O)O)cc(O)c1O)c1cc(S(=O)(=O)O)cc(O)c1O`, the TGI with SF-268 CNS, in the experiment on TK-10 renal, in the experiment with SN12C renal, with UO-31 renal, in the experiment with SK-MEL-2 melanoma and in the experiment on NCI-H522 lung was more than 100 µM each time. The TGI with BT-549 breast, in the experiment with DU-145 prostate, in the experiment with 786-0 renal and in the experiment with NCI-H23 lung was more than 100 µM each time.

Turning to `CCOC(=O)N/N=C(\CC)OCC`, the TGI with SF-268 CNS, in the experiment with HOP-62 NSCLC, in the experiment on TK-10 renal, in the experiment with SN12C renal, with UO-31 renal and with SK-MEL-2 melanoma was more than 100 µM throughout. Also, the TGI in the experiment with NCI-H522 lung, with BT-549 breast, in the experiment with DU-145 prostate, with MOLT-4 leukemia and with 786-0 renal was more than 100 µM in each case.

As for `O=C(O)C12CCC(CC1=O)C2` (configuration not stated), the TGI with SF-268 CNS, in the experiment with HOP-62 NSCLC, in the experiment on TK-10 renal, with SN12C renal, in the experiment with UO-31 renal and in the experiment on SK-MEL-2 melanoma was more than 100 µM throughout. Further, the TGI in the experiment on NCI-H522 lung, in the experiment with BT-549 breast, in the experiment with MOLT-4 leukemia, in the experiment with 786-0 renal and in the experiment on NCI-H23 lung was more than 100 µM throughout.

Turning to `CCOC(=O)C(NC(=O)CC)(Nc1ccc(F)cc1F)C(F)(F)F` (configuration not stated), the TGI in the experiment with SF-268 CNS, in the experiment on TK-10 renal, with SN12C renal, in the experiment on UO-31 renal, with SK-MEL-2 melanoma and in the experiment with BT-549 breast was more than 100 µM each time. The TGI in the experiment with MOLT-4 leukemia, with 786-0 renal and in the experiment with NCI-H23 lung was more than 100 µM in each case.

For the compound `Cc1ccccc1Nc1nc(NNC(=O)Cc2ccccc2)nc(NNC(=O)c2ccncc2)n1`, the TGI in the experiment on SF-268 CNS, in the experiment with HOP-62 NSCLC, with TK-10 renal, in the experiment with SN12C renal, in the experiment with UO-31 renal and in the experiment with BT-549 breast was more than 10 µM throughout. Moreover, the TGI in the experiment on DU-145 prostate, in the experiment on MOLT-4 leukemia and in the experiment on 786-0 renal was more than 10 µM throughout.

As for `COc1cc(C2c3cc4c(cc3OC(NCCO)C2C)OCO4)cc(OC)c1O` (configuration not stated), the TGI in the experiment with SF-268 CNS was more than 100 µM; with TK-10 renal, more than 100 µM; in the experiment with SN12C renal, more than 100 µM; in the experiment with UO-31 renal, more than 100 µM; with SK-MEL-2 melanoma it was 36.9 µM; in the experiment with BT-549 breast, more than 100 µM. Also, the TGI in the experiment on 786-0 renal and with NCI-H23 lung was more than 100 µM each time.

On to `CCOC(=O)c1sc2nc1CSc1sc(=S)sc1SCc1nc(sc1C(=O)OCC)-c1nc(c(C(=O)OCC)s1)CSc1sc(=S)sc1SCc1nc-2sc1C(=O)OCC`, for which the TGI in the experiment with SF-268 CNS, in the experiment with HOP-62 NSCLC, in the experiment on TK-10 renal, in the experiment on SN12C renal, in the experiment on UO-31 renal and in the experiment with SK-MEL-2 melanoma was more than 10 µM each time. In addition, the TGI with NCI-H522 lung, with BT-549 breast, in the experiment with MOLT-4 leukemia, with 786-0 renal and in the experiment with NCI-H23 lung was more than 10 µM in each case.

For the compound `O=c1[nH]c2c(c(=O)[nH]1)C(c1ccc([N+](=O)[O-])cc1)c1c([nH]c(=O)[nH]c1=O)O2`, the TGI with SF-268 CNS, in the experiment with HOP-62 NSCLC, with TK-10 renal, in the experiment on SN12C renal, in the experiment on UO-31 renal and in the experiment on SK-MEL-2 melanoma was more than 100 µM in each case. Besides, the TGI is 82.9 µM in the experiment with NCI-H522 lung; more than 100 µM in the experiment with BT-549 breast; more than 100 µM with DU-145 prostate; more than 100 µM with 786-0 renal; more than 100 µM in the experiment with NCI-H23 lung.

With `Cc1cc(C)nc(NS(=O)(=O)c2ccc(NC(=O)NC(F)(F)F)cc2)n1`, the TGI in the experiment with SF-268 CNS, in the experiment on TK-10 renal, with SN12C renal, in the experiment with UO-31 renal, in the experiment on SK-MEL-2 melanoma and in the experiment with BT-549 breast was more than 100 µM in each case. Further, the TGI in the experiment with MOLT-4 leukemia, with 786-0 renal and in the experiment on NCI-H23 lung was more than 100 µM each time.

For the origin of these results see PubChem BioAssay (NCI).
